Data on 34 molecules can be found in US20240024490A1, “BIFUNCTIONAL MOLECULES FOR SELECTIVE MODIFICATION OF TARGET SUBSTRATES” (The Broad Institute, Inc., priority 2021, published 2024).

The conditions of data set [1]: cited from earlier work.
In another data set the target is T1, Recombinant PKCζ (Homo sapiens, UniProt Q05513).
T1 sequence (Q05513 1-592): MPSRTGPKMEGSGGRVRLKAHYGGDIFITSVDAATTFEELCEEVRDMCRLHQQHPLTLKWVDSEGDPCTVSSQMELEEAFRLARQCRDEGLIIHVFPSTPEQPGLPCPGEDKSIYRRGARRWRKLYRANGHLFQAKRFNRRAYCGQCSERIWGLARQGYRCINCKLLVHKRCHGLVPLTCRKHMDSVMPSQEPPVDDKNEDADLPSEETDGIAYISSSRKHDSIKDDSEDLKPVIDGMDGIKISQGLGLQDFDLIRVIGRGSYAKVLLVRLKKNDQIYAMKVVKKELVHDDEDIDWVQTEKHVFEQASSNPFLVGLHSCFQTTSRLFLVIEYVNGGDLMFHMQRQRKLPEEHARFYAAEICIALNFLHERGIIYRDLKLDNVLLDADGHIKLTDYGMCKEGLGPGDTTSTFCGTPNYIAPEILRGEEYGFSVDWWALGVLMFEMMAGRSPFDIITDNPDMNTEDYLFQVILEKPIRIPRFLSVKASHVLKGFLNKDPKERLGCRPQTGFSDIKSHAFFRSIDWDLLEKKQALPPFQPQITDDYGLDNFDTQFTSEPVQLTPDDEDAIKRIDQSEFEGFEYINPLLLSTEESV
To be noted: cited from earlier work.

In data set [2] the target is T2, PDK1 (Homo sapiens, UniProt O15530).
T2 sequence (O15530 1-556): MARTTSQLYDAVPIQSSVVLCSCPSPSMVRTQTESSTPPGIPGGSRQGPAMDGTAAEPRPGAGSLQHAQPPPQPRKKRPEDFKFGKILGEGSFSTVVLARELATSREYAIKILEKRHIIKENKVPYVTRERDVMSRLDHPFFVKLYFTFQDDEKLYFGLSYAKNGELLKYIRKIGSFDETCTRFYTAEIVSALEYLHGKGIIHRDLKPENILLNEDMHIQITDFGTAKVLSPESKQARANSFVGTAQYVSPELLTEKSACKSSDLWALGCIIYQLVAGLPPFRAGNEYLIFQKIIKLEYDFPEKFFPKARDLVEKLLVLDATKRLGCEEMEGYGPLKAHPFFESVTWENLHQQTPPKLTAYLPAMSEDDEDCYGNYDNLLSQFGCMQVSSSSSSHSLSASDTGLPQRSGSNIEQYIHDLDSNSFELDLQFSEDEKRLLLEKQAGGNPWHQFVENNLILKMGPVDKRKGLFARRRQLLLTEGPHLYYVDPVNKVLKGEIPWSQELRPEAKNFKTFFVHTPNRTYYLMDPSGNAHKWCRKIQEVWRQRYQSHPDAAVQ
The note with it: cited from earlier work.

For data set [3], the target named is T2, PDK1. The note with it: ITC; cited from earlier work. Background: ITC needs no label: the signal is the heat of the interaction.
For the next data set, the system named is K562 cells. Nature of the data set: K562 cell viability. The format is cell-based.
Data set [4] deals with Z-138 cells. Nature of the data set: Z-138 cell viability. The format is cell-based. To be noted: FIGS. 67-71.
In data set [5] the test system is Z-138 cells. Briefly: Z-138 cell viability. The format is cell-based. From the text: Since PKC phosphorylates membrane-associated BTK with the C1 domain buried in the lipid bilayer, [5] Applicants aimed to characterize PHICS-mediated BTK phosphorylation by PKC in vitro in the absence of lipid bilayer. […] PEG4 linker, and benzolactam (FIG. 73A). […] One of the modified residues (T410) is located close to the ATP binding pocket, whereas other sites (S310, 5323, and 5378) are on the loops of the SH2 domain in BTK. […] To explore the biological consequences of these neo-phosphorylations, Applicants adopted a genetic approach where the phosphorylated Ser/Thr residues were mutated to aspartic acid, a phosphomimetic, and alanine as a control. […] [8] […] The following studies will be focused on further optimization of the anti-cancer potency of BTK and BCR-ABL targeting PKC-based PHICS molecules as well as on the detailed investigation of their mechanism of action.
Applicants assessed the viability of Z-138 cells after introduction of small molecules at various concentrations, see FIGS. 67-71. […]
Applicants found a non-linear dependency on Z-138 cell viability as a function of linker length and composition.

A further data set relates to ABL myristoyl domain. To be noted: cited from earlier work.
The next data set deals with JNK 1 (Homo sapiens, UniProt P45983). The note with it: cited from earlier work.
Chain of JNK 1 (P45983 whole entry, species assumed): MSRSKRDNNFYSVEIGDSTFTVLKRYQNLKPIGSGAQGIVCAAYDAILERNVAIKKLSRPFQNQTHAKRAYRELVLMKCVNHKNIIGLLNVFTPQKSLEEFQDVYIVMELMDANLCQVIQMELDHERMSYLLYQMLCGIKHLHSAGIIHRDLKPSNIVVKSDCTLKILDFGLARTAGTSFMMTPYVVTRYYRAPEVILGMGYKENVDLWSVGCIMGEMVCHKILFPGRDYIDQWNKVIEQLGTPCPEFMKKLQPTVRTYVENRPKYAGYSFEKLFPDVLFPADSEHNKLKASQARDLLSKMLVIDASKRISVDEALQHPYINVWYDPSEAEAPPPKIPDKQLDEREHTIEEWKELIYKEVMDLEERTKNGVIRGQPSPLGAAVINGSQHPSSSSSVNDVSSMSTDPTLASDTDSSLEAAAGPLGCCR
The next data set concerns the target JNK 2 (Homo sapiens, UniProt P45984). To be noted: cited from earlier work.
The next data set addresses T3, Aurora A (Homo sapiens, UniProt O14965).
T3 sequence (O14965 1-403): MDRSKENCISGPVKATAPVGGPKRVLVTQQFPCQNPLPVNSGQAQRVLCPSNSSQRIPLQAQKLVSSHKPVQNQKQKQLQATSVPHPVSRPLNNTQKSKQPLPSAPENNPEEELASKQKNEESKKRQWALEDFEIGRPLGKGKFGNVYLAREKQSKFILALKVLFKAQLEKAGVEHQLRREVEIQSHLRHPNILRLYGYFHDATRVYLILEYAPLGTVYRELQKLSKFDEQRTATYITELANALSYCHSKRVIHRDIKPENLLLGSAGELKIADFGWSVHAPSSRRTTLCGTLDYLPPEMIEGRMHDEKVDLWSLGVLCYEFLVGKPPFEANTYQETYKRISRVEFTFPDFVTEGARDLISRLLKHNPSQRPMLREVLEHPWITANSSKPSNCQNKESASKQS
To be noted: cited from earlier work; for Ki: read-out: Calculated Ki.

The test system of the next data set is HSP90. To be noted: cell free assay; cited from earlier work.

Like-named read-outs stand apart in the source and are kept apart here.

Chain of JNK 2 (P45984 whole entry, species assumed): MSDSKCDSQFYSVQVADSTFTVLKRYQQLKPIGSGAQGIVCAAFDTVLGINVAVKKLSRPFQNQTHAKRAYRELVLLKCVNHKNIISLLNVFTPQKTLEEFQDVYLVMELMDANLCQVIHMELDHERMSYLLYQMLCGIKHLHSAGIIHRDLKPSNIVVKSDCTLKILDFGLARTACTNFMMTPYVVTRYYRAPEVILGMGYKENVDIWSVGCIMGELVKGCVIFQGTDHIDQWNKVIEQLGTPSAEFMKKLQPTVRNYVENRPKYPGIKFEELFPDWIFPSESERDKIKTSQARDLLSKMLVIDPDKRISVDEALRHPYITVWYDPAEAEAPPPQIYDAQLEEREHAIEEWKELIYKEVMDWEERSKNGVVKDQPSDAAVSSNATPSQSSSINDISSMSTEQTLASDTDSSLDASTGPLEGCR

As to `O=C(NOCC(O)CO)c1ccc(F)c(F)c1Nc1ccc(I)cc1F` (racemic) [Compound 33], the “Sol (pH 6.5)” value in [1] was 147 μg/mL.

In general, IC50 refers to the concentration that inhibits the measured activity by half. In the case of `CC(C)(C)C1=NN(c2ccc(Br)cc2)C(c2ccc(O)cc2)C1` (stereo not shown) [1c], the “cell-free assay, % inhibition at 62.5 μM” value on Recombinant PKCζ is 93.2%. The IC50 on Recombinant PKCζ (read-out: cell-free assay, IC50 ± SD) was 11.4 ± 1.25 µM.

On to `CC(C)(C)C1=NN(c2ccc(C(F)(F)F)cc2)C(c2ccc(O)cc2)C1` (stereo not shown) [1d], for which, on Recombinant PKCζ, the “cell-free assay, % inhibition at 62.5 μM” value is 94.2%.

Take `CC(C)c1ccc(N2N=C(C(C)(C)C)CC2c2ccc(O)cc2)cc1` (stereo not shown) [1f]: at Recombinant PKCζ, the “cell-free assay, % inhibition at 62.5 μM” value was 54.9%.

With `CC(C)(C)C1=NN(c2ccc(C(=O)O)cc2)C(c2ccc(O)cc2)C1` (stereo not shown) [1g], the “cell-free assay, % inhibition at 62.5 μM” value on Recombinant PKCζ is 47.9%.

For `CC(C)(C)C1=NN(c2cccc(F)c2)C(c2ccc(O)cc2)C1` (stereo not shown) [1i], the “cell-free assay, % inhibition at 62.5 μM” value at Recombinant PKCζ is 98.1%.

`CC(C)(C)C1=NN(c2ccccc2Cl)C(c2ccc(O)cc2)C1` (stereo not shown) [1l]: the “cell-free assay, % inhibition at 62.5 μM” value at Recombinant PKCζ is on record as 57.1%.

For the molecule `CC(C)(C)C1=NN(c2ccccc2F)C(c2ccc(O)cc2)C1` (stereo not shown) [1m], the “cell-free assay, % inhibition at 62.5 μM” value at Recombinant PKCζ is listed as 57.6%.

For the molecule `CC(C)(C)C1=NN(c2ccc(Cl)cc2Cl)C(c2ccc(O)cc2)C1` (stereo not shown) [1n], on Recombinant PKCζ, the “cell-free assay, % inhibition at 62.5 μM” value is reported as 71.0%.

`CC(C)(C)C1=NN(c2ccc(F)cc2F)C(c2ccc(O)cc2)C1` (stereo not shown) [1o]: on Recombinant PKCζ, the “cell-free assay, % inhibition at 62.5 μM” value was 68.0%.

Take `Cc1ccc(N2N=C(C(C)(C)C)CC2c2ccc(O)cc2)c(C)c1` (stereo not shown) [1p]: at Recombinant PKCζ, the “cell-free assay, % inhibition at 62.5 μM” value was 59.9%.

As usually defined, the AC50 is the concentration giving half of the maximal activity seen. Take `O=C(O)/C=C(/CCc1cccc(Cl)c1)c1ccccc1` [3Z]: the concentration at half-maximal activity (AC50) on PDK1 [2] (read-out: AC50) was 9.5 µM.

Regarding `O=C(O)/C=C(\CCc1ccc(F)cc1)c1ccccc1` [4E], the AC50 result on PDK1 [2] is on record as “n.e”.

With `O=C(O)/C=C(/CCc1ccc(Br)cc1)c1ccccc1` [5Z], at PDK1 [2] (read-out: AC50), the AC50 was 9.8 µM. At PDK1 [3], the TΔS is listed as 3.20 kcal/mol, the ΔG was -6.32 kcal/mol, the ΔH is -3.07 kcal/mol and the ΔH/ΔG is on record as 46.6%.

Take `O=C(Nc1nnc(SCc2ccc([N+](=O)[O-])cc2)s1)c1ccccc1Cl` [6E]: at PDK1 [2], the AC50 result is given as “n.e”.

For `O=C(O)/C=C(/CCc1ccc(C(F)(F)F)cc1)c1ccccc1` [6Z], the AC50 on PDK1 [2] (read-out: AC50) is 7.1 µM. Besides, on PDK1 [3], the TΔS is 4.79 kcal/mol, the ΔG is -6.73 kcal/mol, the ΔH is -1.84 kcal/mol and the ΔH/ΔG was 26.5%.

For the molecule `Cc1ccc(CC/C(=C\C(=O)O)c2ccccc2)c(Cl)c1` [8E], at PDK1 [2], the AC50 result was “n.e”.

Take `CCc1ccc(CC/C(=C\C(=O)O)c2ccccc2)cc1` [10E]: on PDK1 [2], the concentration at half-maximal activity (AC50) entry is “n.e”.

Consider `CCc1ccc(CC/C(=C/C(=O)O)c2ccccc2)cc1` [10Z], for which the half-maximal activity concentration (AC50) on PDK1 [2] (read-out: AC50) was more than 50 µM.

`O=C(O)/C=C(/CCc1ccc2ccccc2c1)c1ccccc1` [12Z]: at PDK1 [2] (read-out: AC50), the AC50 was 6 µM. Also, at PDK1 [3], the TΔS is reported as 1.96 kcal/mol, the ΔG is -6.67 kcal/mol, the ΔH was -4.56 kcal/mol and the ΔH/ΔG is 68.3%.

For `O=C(O)/C=C(/CCc1c[nH]c2ccccc12)c1ccccc1` [13Z], the AC50 on PDK1 [2] (read-out: AC50) was 7.6 µM. In addition, at PDK1 [3], the TΔS is recorded as 2.60 kcal/mol, the ΔG was -6.73 kcal/mol, the ΔH is -4.09 kcal/mol and the ΔH/ΔG is reported as 60.8%.

As to `O=C(NOCC(O)CO)c1ccc(F)c(F)c1Nc1ccc(I)cc1F` (stereo not shown) [Compound 35], in [1], the “Sol (pH 6.5)” value is 255, μg/mL.

By EC50 is commonly meant the concentration needed to bring the measured effect to its halfway point. Consider `O=C1NC(=O)C(c2cn(-c3ccccc3)nc2-c2ccc(F)cc2)N1` (stereo not shown) [Cpd1], for which the EC50 in the data set with K562 cells (unit inferred) is not below 10 µM; in the data set with K562 cells (unit inferred, listed as Cpdl), more than 10 µM.

As for `CCCN(Cc1ccc(-c2ccccc2-c2nn[nH]n2)cc1)c1nc2ccccc2s1` [Cpd2], the concentration for a half-maximal effect (EC50) in the data set on K562 cells is approximately 1 µM.

For `CCCCN(Cc1ccc(-c2ccccc2-c2nn[nH]n2)cc1)c1nc(C)cc(C)n1` [Cpd3], in the data set on K562 cells, the EC50 was approximately 0.31 µM.

In the case of `C=CC(=O)N1CCC[C@@H](n2nc(-c3ccc(Oc4ccccc4)cc3)c3c(N)ncnc32)C1` [Ibrutinib], the “effect on Z-138 cell viability” value in the data set with Z-138 cells [4] and with Z-138 cells [5] was “did not have any significant effect” each time.

Regarding `O=C(NOC[C@H](O)CO)c1ccc(F)c(F)c1Nc1ccc(I)cc1F` [Mirdametinib], in [1], the “Sol (pH 6.5)” value is given as 190 μg/mL.

For the molecule `CNCc1ccc(COc2ccc3c(c2)N(C)C(C(C)C)C(=O)NC(CO)C3)cc1` (stereo not shown) [benzolactam], the “effect on Z-138 cell viability” value in the data set on Z-138 cells [4] and with Z-138 cells [5] was “did not have any significant effect” each time.

The pIC50 is the IC50 on a negative log10 scale, so that one unit is a factor of ten. Regarding `CCCN(Cc1ccc(-c2ccccc2-c2nn[nH]n2)cc1)c1nc2ccccc2s1` [compound 2], in the data set with ABL myristoyl domain, the pIC50 is listed as 6.5.

Take `CCOc1nc(C(=O)NCC2CCN(Cc3sc(-c4ccccc4)nc3C)CC2)cc(N)c1C#N` [compound 6]: the figures for the IC50 on JNK 1 and at JNK 2 were less than 0.0018 µM and less than 0.0026 µM, respectively.

For `CNc1ncc2c(n1)N(C1CCC(O)C1)C(=O)N(c1cc(NC(=O)c3ccc(CN4CCN(C)CC4)c(C(F)(F)F)c3)ccc1C)C2` (stereo not shown) [compound 9], the IC50 at JNK 1 was 0.97 µM; at JNK 2 it was 1.3 µM.

For orientation: Ki means the dissociation constant of the complex between target and ligand, obtained from inhibition or displacement. Turning to `O=C(O)c1cc(-c2cccc(F)c2)nc2ccccc12` [compound 26], at Aurora A, the concentration for half-maximal inhibition (IC50) was 75.9 µM and the Ki is 16.5 µM.

For `O=C(O)c1cc(-c2cccc(C(F)(F)F)c2)nc2ccccc12` [compound 34], at Aurora A, the IC50 is 26.5 µM and the Ki is 5.7 µM.

Take Alvespimycin: the concentration for half-maximal inhibition (IC50) in the data set with HSP90 is 0.062 µM.
